In patent US12306176B2, “Microfluidic bi-directional migration assay” (Ohio State Innovation Foundation, priority 2017, dated 2025):

How the values were obtained:
EGFR = assay: Western blot of EGFR phosphorylation (Tyr-1068); format: cell-based, human; conditions: EGF 25 ng/mL, absence of iEFs, 12 hours
Experimental: For these experiments, 1×10^6 cells/well were plated in 6-well plates in growth media for 12 hours followed by migration media for another 12 hours. Fresh migration media was added to the top three wells in each plate (1, 2, 3) while EGF (25 ng/mL) and supplemental migration media were added to the bottom three wells (4, 5, 6). One of the cell-containing 6-well plates was then treated with iEFs for 12 hours. Immediately after treatment, the plates were placed on ice and each well was then washed three times with 1× tris-buffered saline (TBS, Corning Inc.) solution. TBS was aspirated out and 1 mL ice-cold radioimmunoprecipitation assay (RIPA) buffer, supplemented with a protease inhibitor and a phosphatase inhibitor, was added to each well. Cells were scraped out using a cold plastic cell scraper and the cell suspension was transferred into a pre-cooled microcentrifuge tube. The cell suspension was then spun at 16000 g for 20 minutes in a 4° C. precooled centrifuge. The centrifuge tubes were placed on ice and the supernatants were transferred to fresh tubes and kept on ice. The pellet at the bottom of each microcentrifuge tube was discarded. Protein in each tube was estimated against a standard bovine serum albumin (BSA) solution (1.42 mg/mL) using the DCTM Protein Assay Kit II (Bio-Rad, 500-0112). […]

MDA-MB-231 cells = assay: F-actin polarization ratio in the MBDM assay; format: cell-based, human; conditions: EGF gradient, absence of iEFs (untreated 0.34)
Experimental: This section reports on the effects of iEFs on the distribution of F-actin in cells migrating along the microtracks of the MBDM assay. To quantify the distribution of F-Actin, a quantity referred to herein as the polarization ratio (PR) was introduced, which has values between 0 and 1.
Cells in the devices were fixed in 3.7 (wt/wt) paraformaldehyde solution for 30 minutes. They were subsequently washed with 1×PBS three times. For F-actin labeling, we blocked the cells for 60 minutes in blocking buffer (0.1% Triton-X and 5% donkey serum in 1×PBS). Cells were then treated with Alexa Fluoro® 488-conjugated or 555-conjugated phalloidin for 60 minutes (1:40, ThermoFisher), again followed by a 1×PBS wash (three times, 10 minutes each). […]
Actin immunofluorescence images were acquired using a Nikon TE200 epifluorescence microscope (Nikon Instruments Inc.) under a 20× objective. The immunofluorescence images were quantified using custom MATLAB scripts. The custom MATLAB script calculated the geometric center for an individual cell, i.e. the arithmetic mean of the locations of all pixels comprising the cell area. Then the distance from this geometric center and angle (0°≤θ≤360°) of every pixel relative to a horizontal axis (θ=0°) was calculated. […] A moment of intensity is calculated for individual pixels and this value is summed for all the pixels in every individual sector. […]

epidermal growth factor [EGF]
EGFR phosphorylation (EGFR): resulted in EGFR phosphorylation | center of the F-actin polarization ratio (PR) distribution (MDA-MB-231 cells): 0.62
